What was measured:
[1] = tested on: papain; conditions: cited from earlier work
[2] = tested on: trypsin, chymotrypsin, plasmin, kallikrein, elastase, thrombin and a protease from Aspergillus oryzae; conditions: cited from earlier work
[3] = tested on: Papain induced emphysema; conditions: hamster; cited from earlier work
[4] = tested on: papain-induced emphysema; assay: Papain-Induced Emphysema in the Hamster; type: in vivo, Male Syrian hamsters; conditions: for I.S.A.3 (internal surface area), Mean ± S.E. / Lm (mean linear intercept), Mean ± S.E.: *p<0.05 versus saline i.tr. + papain aerosol group
Description: In view of the test results, infra, the compounds of formula I, supra, are inhibitors of elastase and may be used to treat emphysema and other disorders which may be treated with elastase inhibitors, such as rheumatoid arthritis. The test procedure described below for papain-induced emphysema in the hamster is representative of recognized procedures used to experimentally papain-induce emphysema in the hamster such as that of Goldring et al. "Sequential Anatomic Changes in Lungs Exposed to Papain and other Proteolytic Enzymes" pages 389-410 in Pulmonary Emphysema and Proteolysis, edited by C. Mittman, Academic Press, Inc., New York and London, 1972.
Male Syrian hamsters in the weight range of 70-90 g were used. Food and water was allowed ad libitum except in the exposure chamber. The animals were anesthetized with pentobarbital 60 mg/kg intraperitoneally (i.p.) and saline (control) or 2-(2-furoyl)-saccharin suspended in distilled water in doses of 0.3, 1 and 3 mg was given intratracheally (i.tr.) through a slightly bent capillary tube (Kimax-51 No. 34500). […] Approximately 40 minutes later the animals were exposed to an aerosol of distilled water or 3% papain (Matheson, Coleman and Bell) for 3 hours. The aerosol was generated by two nebulizers (De Vilbiss 40) attached to the sides of a 28 liter chamber and operated at a pressure of 10 lbs. p.s.i. During this period 80-100 ml of solution was used.
Seven days after the exposure the animals were sacrificed with an overdose of pentobarbital, exanguinated by cutting the renal arteries and the lungs were excised, weighed and placed in a cylindrical 0.45 liter plethysmograph with the trachea tied to a conducting tube. The latter was connected to a respiratory pump (E & M Inst. Co., Houston, Tex.) modified to provide static inflation and deflation of the lungs. Transpulmonary pressure was recorded on the abcissa of a Honeywell 530 x-y recorder through a Grass volumetric pressure transducer (PT 5A). Changes in lung volume were recorded on the ordinate of a spirometer (10 ml capacity) connected to a Harvard linear motion transducer.
The specific static compliance (SSC) of the lungs was determined as follows: the lungs were inflated to a pressure of 20 cm H2 O and then deflated at 30 second intervals by steps of 5 cm H2 O pressure. The procedure was repeated and the second pressure volume defation curve was used for analysis. SSC was then calculated according to the formula ΔV/ΔP×W, where ΔV represents change in lung volume (ml) following change in pressure (ΔP) from 5 to 0 cm H2 O, and W is the lung wet weight (g).
Subsequently, the lungs were degassed and fixed intratracheally with formalin at a constant pressure of 15 cm H2 O for at least 48 hours and then dehydrated at the same pressure. All lungs were cleared in toluene, embedded under vacuum in parafin and each pair was blocked together. Two laterosagittal sections (6μ) of each lung were made and stained with hematoxylin and eosin and the extent of emphysematous lesions was quantitatively estimated by measuring the average intra-alveolar distance (mean linear intercept of Lm). A total of 20 random histologic fields were evaluated both vertically and horizontally and subsequently corrected for distortion and shrinkage. The internal surface area of the lungs measured at post-fixation lung volume (V) and corrected to an arbitrary total lung volume of 3 ml (ISA3) was calculated according to the formula 4V/Lm. In all studies statistical evaluation consisted of analysis of variance and significance was taken at P≤0.05.

[5] = tested on: elastase-induced emphysema (Porcine pancreatic elastase); assay: Elastase-Induced Emphysema in the Hamster; type: in vivo, Male Syrian hamsters; conditions: for Lm, Mean ± S.E.: *P<0.05 versus elastase 0.1 mg i.tr. group
[6] = Group C: 0.3 mg i.tr. + papain aerosol
[7] = Group D: 1 gm i.tr. (so in the source) + papain aerosol
[8] = Group E: 3 mg i.tr. + papain aerosol
[9] = Elastase 0.1 mg + 0.03 mg i.tr.

For “human α1-antitrypsin (HAAT): a glycoprotein in human serum”, the inhibition of papain [1] is listed as “not inhibited”, the inhibitory spectrum [2] is listed as “wide inhibitory spectrum covering trypsin, chymotrypsin, plasmin, kallikrein, elastase, thrombin and a protease from Aspergillus oryzae” and the “Papain induced emphysema inhibited” value [3] is listed as “inhibited”.
With `O=C(c1ccco1)N1C(=O)c2ccccc2S1(=O)=O` [2-(2-Furoyl)-saccharin, 2-(2-Furoyl)saccharin] the “% Inhibition (S.S.C.)” value ([4]; 0.3 mg i.tr. + papain aerosol) was 34%, the “S.S.C. (specific static compliance) ΔV/ΔP × W, Mean ± S.E.” value ([4]; 0.3 mg i.tr. + papain aerosol) was 0.529 ± 0.041 and the “% Inhibition (S.S.C.)” value ([4]; 3 mg i.tr. + papain aerosol) was 74%. For the same molecule, the “S.S.C. (specific static compliance) ΔV/ΔP × W, Mean ± S.E.” value ([4]; 3 mg i.tr. + papain aerosol, *P<0.05 versus saline i.tr. + papain aerosol group) was 0.360 ± 0.017, the “Inhibition, dose relation and significance” value ([4]; 0.3, 1 and 3 mg i.tr., significance at P≤0.05) was “dose related but significant only for doses of 1 and 3 mg” and the “% Inhibition (S.S.C.)” value ([4]; 1 gm i.tr. (so in the source) + papain aerosol) was 48%. For the same molecule, the “S.S.C. (specific static compliance) ΔV/ΔP × W, Mean ± S.E.” value ([4]; 1 gm i.tr. (so in the source) + papain aerosol, *P<0.05 versus saline i.tr. + papain aerosol group) was 0.471 ± 0.039, the “% inhibition (I.S.A.3)” value [4, 6] was 58% and the “% inhibition (Lm)” value [4, 6] was 69%. The “I.S.A.3 (internal surface area), Mean ± S.E.” value [4, 6] was 400 + 38 cm^2, the “Lm (mean linear intercept), Mean ± S.E.” value [4, 6] was 88.44 ± 2.54 μ and the “% inhibition (I.S.A.3)” value [4, 7] was 42%. The “% inhibition (Lm)” value [4, 7] was 59%, the “I.S.A.3 (internal surface area), Mean ± S.E.” value [4, 7] was 1344 ± 34 cm^2 and the “Lm (mean linear intercept), Mean ± S.E.” value [4, 7] was 90.87 ± 2.40 μ. The “% inhibition (I.S.A.3)” value [4, 8] was 65%, the “% inhibition (Lm)” value [4, 8] was 84% and the “I.S.A.3 (internal surface area), Mean ± S.E.” value [4, 8] was 1445 ± 54 cm^2. The “Lm (mean linear intercept), Mean ± S.E.” value [4, 8] was 84.39 ± 2.68 μ, the “development of the emphysematous lesions” value ([4]; i.tr., evaluated by both physiologic and histologic methods) was “prevented the development of the emphysematous lestions” and the “development of pulmonary emphysematous lesions” value ([5]; 1 mg added to elastase prior to i.tr. administration) was “completely prevented the development of pulmonary emphysematous lesions”. The “protective effect (histological changes)” value ([5]; 0.03 to 0.3 mg added to elastase prior to i.tr. administration) was “partial but statistically significant protective effect”, the “% inhibition of ΔLm” value [5, 9] was 48% and the ΔLm [5, 9] was “+17 μ”. The “Lm, Mean ± S.E.” value [5, 9] was 96.61 ± 3.22 μ, the “% inhibition of ΔLm” value ([5]; Elastase 0.1 mg + 0.1 mg i.tr.) was 54% and the ΔLm ([5]; Elastase 0.1 mg + 0.1 mg i.tr.) was “+15 μ”. For the same molecule, the “Lm, Mean ± S.E.” value ([5]; Elastase 0.1 mg + 0.1 mg i.tr.) was 94.34 ± 4.31 μ, the “% inhibition of ΔLm” value ([5]; Elastase 0.1 mg + 0.3 mg i.tr.) was 51% and the ΔLm ([5]; Elastase 0.1 mg + 0.3 mg i.tr.) was “+16 μ”. The “Lm, Mean ± S.E.” value ([5]; Elastase 0.1 mg + 0.3 mg i.tr.) was 96.27 ± 2.36 μ, the “% inhibition of ΔLm” value ([5]; Elastase 0.1 mg + 1.0 mg i.tr.) was 100% and the ΔLm ([5]; Elastase 0.1 mg + 1.0 mg i.tr.) was -2 μ. The “Lm, Mean ± S.E.” value ([5]; Elastase 0.1 mg + 1.0 mg i.tr.) was 77.68 ± 2.54 μ.
